Results from US20160061816A1, “SCREENING METHOD FOR ION CHANNEL MODULATORS USING MUTATED BKCA CHANNEL” (GWANGJU INSTITUTE OF SCIENCE AND TECHNOLOGY, priority 2013, published 2016).

Key:
[1] = target: T1, WT BKCa channel (Homo sapiens, UniProt Q12791); experiment: FluxOR fluorescence-based assay, cells stably expressing WT BKCa channel; details: 10 μM CTBIC, stable cell lines expressing WT channel, FIG. 5b
T1 construct: expressed in transfected cells
Method: (§1) Commercially available FluxOR™ Potassium Ion Channel Assay (Invitrogen) was used in order to perform a fluorescence-based assay for BKCa channels. AD-293 cells stably expressing WT and G733D/N736K BKCa channels were plated onto a poly-D-lysine (Sigma)-coated 96-well microplate (Corning) (5×10^4 cells per well). Cells were pre-cultured with a test compound, CTBIC (4-chloro-7-(trifluoromethyl)-10H-benzofuro[3,2-b]indole-1-carboxylic acid) for 30 minutes in advance of the recording. The fluorescence signal was measured using a Synergy™ H1 Hybrid Multi-Mode Microplate Reader (BioTek Instrument, Inc., Winnoski, Vt.) with Gen5 software. […] The microplate was read every 15 seconds in order to identify whether or not the system of the present invention is suitable for high throughput screening using a standard fluorimeter.
(§2) Finally, the present inventors performed experiments to determine whether cells stably expressing hyperactive BKCa channels are suitable for high-throughput screening for channel activators. […] When cells reached 80% to 90% confluence, FluxOR™ signals were measured. Further, the fluorescence signals from parental AD-293 cell lines were measured as a control group. Prior to reading out the fluorescence, the cells were pre-treated with 10 μM CTBIC or DMSO (control group). […] Relative fluorescence unit (RFU) values increased up to 2.3-fold as compared to basal responses.

[2] = target: T2, G733D/N736K BKCa channel (Homo sapiens, UniProt Q12791, G856D/N859K); experiment: Patch clamp macroscopic current recording, G733D/N736K BKCa channel; type: cell-based
T2 construct: NO: 4; expressed in transfected cells
T2 sequence (Q12791 66-1178 isoform Q12791-5 G798D/N801K): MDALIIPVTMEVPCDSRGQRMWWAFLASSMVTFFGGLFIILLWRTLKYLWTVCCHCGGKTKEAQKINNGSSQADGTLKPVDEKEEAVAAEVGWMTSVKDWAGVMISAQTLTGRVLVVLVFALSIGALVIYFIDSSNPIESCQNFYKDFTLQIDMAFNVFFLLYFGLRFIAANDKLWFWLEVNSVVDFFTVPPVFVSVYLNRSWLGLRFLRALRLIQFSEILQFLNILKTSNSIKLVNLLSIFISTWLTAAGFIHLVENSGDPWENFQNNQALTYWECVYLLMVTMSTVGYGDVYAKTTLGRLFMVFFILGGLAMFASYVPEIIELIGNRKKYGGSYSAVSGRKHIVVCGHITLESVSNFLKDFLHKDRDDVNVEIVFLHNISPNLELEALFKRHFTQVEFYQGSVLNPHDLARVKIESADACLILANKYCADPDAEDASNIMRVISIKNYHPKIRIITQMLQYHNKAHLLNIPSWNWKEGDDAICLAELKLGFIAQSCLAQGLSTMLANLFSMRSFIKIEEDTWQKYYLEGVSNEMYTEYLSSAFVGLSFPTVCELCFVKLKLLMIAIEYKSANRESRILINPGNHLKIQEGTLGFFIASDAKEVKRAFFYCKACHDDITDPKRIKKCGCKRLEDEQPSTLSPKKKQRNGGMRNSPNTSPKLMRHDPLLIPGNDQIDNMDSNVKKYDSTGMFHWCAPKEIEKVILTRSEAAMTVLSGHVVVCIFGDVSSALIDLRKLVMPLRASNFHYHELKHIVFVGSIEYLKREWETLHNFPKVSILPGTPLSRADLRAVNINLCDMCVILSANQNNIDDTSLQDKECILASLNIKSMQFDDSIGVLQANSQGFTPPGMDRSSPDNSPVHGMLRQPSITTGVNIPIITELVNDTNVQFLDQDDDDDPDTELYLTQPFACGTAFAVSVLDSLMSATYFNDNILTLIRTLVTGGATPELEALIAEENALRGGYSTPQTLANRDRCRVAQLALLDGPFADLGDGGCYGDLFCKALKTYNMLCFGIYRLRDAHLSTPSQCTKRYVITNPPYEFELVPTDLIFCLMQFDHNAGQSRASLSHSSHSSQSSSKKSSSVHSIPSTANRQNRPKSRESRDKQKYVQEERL
Method: (§3) Macroscopic current recordings were performed using a gigaohm seal patch clamp method. Patch pipettes were made from borosilicate glass (WPI, Sarasota, Fla.), and then fire polished with resistance of 3-5 MΩ. The channel currents were amplified using Axopatch 200B amplifier (Axon Instruments, Foster City, Calif.), low-pass filtered at 1 or 2 kHz using a four-pole Bessel filter, and then digitized at a rate of 10 or 20 points/ms using a Digidata 1200 A digitizer (Axon Instruments). The ionic currents of BKCa channels were activated by voltage-clamped pulses delivered from a holding potential of −100 mV to membrane potentials ranging from −80 mV to 200 mV in increments of 10 mV. The intracellular and extracellular solutions contained, unless otherwise specified, 116 mM KOH (Sigma), 4 mM KCl (Sigma), 10 mM HEPES and 5 mM EGTA (Sigma), and were titrated to pH 7.2 using MES (2-(N-morpholino)ethanesulfonic acid). In order to precisely measure [Ca^2+]i, the appropriate amount of total […] to be added to the intracellular solution was calculated using MaxChelator software (Patton, et al., 2004; http://maxchelator.stanford.edu/).
In order to evaluate the suitability of cell lines stably expressing G733D/N736K channels as a platform for identification of BKCa channel modulators, the function of a strong BKCa channel activator, CTBIC, which potentiates mutated channel activity, was investigated (Gormemis, et al., 2005; Lee, et al., 2012). […] The relative conductance (G/Gmax) was obtained by normalizing the tail currents (evoked by a step hyperpolarization to −100 mV from a given voltage) to the maximum tail current. The G/Gmax values at 0 μM and 10 μM CTBIC were fitted using a Boltzmann function.

[3] = test system: parental AD-293 cells; experiment: FluxOR fluorescence-based assay, parental cell line (control); details: 10 μM CTBIC, FIG. 5a
Method: as §1, §2

[4] = target: T1, WT BKCa channel; experiment: Patch clamp macroscopic current recording, WT BKCa channel; type: cell-based
Method: as §3, with “http://maxchelator.stanford.edu/). […]” for “http://maxchelator.stanford.edu/).”

[5] = target: T2, G733D/N736K BKCa channel; experiment: FluxOR fluorescence-based assay, cells stably expressing G733D/N736K BKCa channel; type: cell-based
Method: as §1, §2

T1 sequence (Q12791 1-1178 isoform Q12791-5): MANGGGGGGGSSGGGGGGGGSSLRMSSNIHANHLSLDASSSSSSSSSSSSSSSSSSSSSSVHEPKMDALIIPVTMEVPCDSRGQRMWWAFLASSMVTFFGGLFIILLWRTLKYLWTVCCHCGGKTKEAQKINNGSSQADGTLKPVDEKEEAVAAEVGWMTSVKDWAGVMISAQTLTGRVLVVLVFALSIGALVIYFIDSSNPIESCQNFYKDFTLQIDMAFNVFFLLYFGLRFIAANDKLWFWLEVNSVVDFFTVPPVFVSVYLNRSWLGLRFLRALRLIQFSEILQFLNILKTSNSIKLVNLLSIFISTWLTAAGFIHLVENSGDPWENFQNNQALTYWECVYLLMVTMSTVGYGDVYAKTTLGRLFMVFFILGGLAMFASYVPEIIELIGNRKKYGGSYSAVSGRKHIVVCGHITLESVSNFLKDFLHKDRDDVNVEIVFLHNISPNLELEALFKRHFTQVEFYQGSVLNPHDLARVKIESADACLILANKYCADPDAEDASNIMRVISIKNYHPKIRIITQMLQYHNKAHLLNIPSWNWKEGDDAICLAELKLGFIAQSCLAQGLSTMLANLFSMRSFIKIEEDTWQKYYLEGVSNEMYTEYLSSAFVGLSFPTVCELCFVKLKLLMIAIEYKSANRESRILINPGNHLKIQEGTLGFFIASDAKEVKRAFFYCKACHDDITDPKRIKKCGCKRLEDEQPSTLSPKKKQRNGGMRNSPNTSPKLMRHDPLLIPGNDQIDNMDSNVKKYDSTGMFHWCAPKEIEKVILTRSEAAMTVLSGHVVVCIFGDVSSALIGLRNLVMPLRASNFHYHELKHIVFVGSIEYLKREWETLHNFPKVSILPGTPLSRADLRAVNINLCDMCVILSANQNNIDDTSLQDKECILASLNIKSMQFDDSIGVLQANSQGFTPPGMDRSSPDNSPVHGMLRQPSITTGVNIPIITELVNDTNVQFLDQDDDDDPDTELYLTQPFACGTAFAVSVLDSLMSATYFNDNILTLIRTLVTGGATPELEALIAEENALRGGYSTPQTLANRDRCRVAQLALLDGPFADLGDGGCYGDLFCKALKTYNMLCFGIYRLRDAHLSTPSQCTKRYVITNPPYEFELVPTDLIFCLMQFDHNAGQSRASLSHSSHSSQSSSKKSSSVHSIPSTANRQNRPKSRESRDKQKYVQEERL

fluorescence increase [1]: about 1.3 fold
effect on ionic current ([2]; 10 μM CTBIC added to membrane patch, 100 nM [Ca2+]i, FIG. 4b): strongly potentiated
shift of G-V curve ([2]; 10 μM CTBIC, FIG. 4c): shifted in the negative direction
effect on ionic current ([4]; 10 μM CTBIC added to membrane patch, 100 nM [Ca2+]i, FIG. 4a): strongly potentiated
shift of G-V curve ([4]; 10 μM CTBIC, FIG. 4c): shifted in the negative direction
Relative fluorescence unit (RFU) increase as compared to basal responses ([5]; 10 μM CTBIC, 30 min pre-treatment, AD-293 cells stably expressing G733D/N736K channel, stimulus buffer 10 mM free K+): up to 2.3 fold
increase in fluorescence signals ([5]; stimulus with 10 μM CTBIC, FIG. 5c): ~2.3 times
SMILES: O=C(O)c1ccc(Cl)c2c1[nH]c1c3ccc(C(F)(F)F)cc3oc12 [CTBIC, 4-chloro-7-(trifluoromethyl)-10H-benzofuro[3,2-b]indole-1-carboxylic acid]
shift in V1/2 value (V1/2 free vs. V1/2 10 μM) ([2]; 10 μM CTBIC, compared with WT channel, FIG. 4d): much larger than the shift for the WT channel
impact on the induced fluorescence increase [3]: minimum impact
